Laboratory results from PMC6508583 (Journal of the American Chemical Society, 2019).
Values after ≈ are worked out from the molar mass of the structure shown. Values joined by “and” are separate entries in the source; they are usually repeats but may differ in a detail not shown here. Equal entries are not always repeated.

Columns and labels:
[1] = test system: E. coli; experiment: Neutropenic mouse E. coli septicemia model; type: in vivo
[2] = test system: Mit13 hybrid ribosome (decoding A site of the human mitochondrial ribosome); type: biochemical
[3] = test system: NIH 3T3 mouse embryonic fibroblast cells; type: cell-based
[4] = test system: K. pneumoniae; experiment: Antibacterial activity against reference strains: K. pneumoniae; type: cell-based; details: strain AG215
[5] = test system: Mycobacterium abscessus; experiment: microbe, parasite or virus in culture; type: cell-based
[6] = test system: wild-type E. cloacae clinical isolates; experiment: MIC distribution, clinical wild-type E. cloacae isolates; type: cell-based; details: panel of wild-type clinical isolates
[7] = test system: E. coli carrying specific resistance determinants; experiment: Activity against wild-type and engineered E. coli carrying specific AMEs or RMTs; type: cell-based
[8] = test system: E coli 70S ribosome (helix 44, A1408); experiment: Quantitative dimethyl sulfate footprinting of the 70S ribosome; type: binding; details: read-out: apparent Kd; DMS footprinting, % protection of N1 of A1408, E. coli 70S ribosome
[9] = test system: wild-type K. pneumoniae clinical isolates; experiment: MIC distribution, clinical wild-type K. pneumoniae isolates; type: cell-based; details: panel of wild-type clinical isolates
[10] = test system: E. coli; experiment: Antibacterial activity against reference strains: E. coli
[11] = test system: A1555G mutant mitochondrial hybrid ribosome; type: biochemical, human
[12] = test system: P. aeruginosa; experiment: Antibacterial activity against reference strains: P. aeruginosa
[13] = test system: K. pneumoniae clinical isolates carrying two or more resistance determinants; type: cell-based; details: AAC(3), AAC(6’)
[14] = test system: wild-type E. coli clinical isolates; experiment: MIC distribution, clinical wild-type E. coli isolates; type: cell-based; details: panel of wild-type clinical isolates
[15] = test system: Mycobacterium smegmatis wild type; experiment: Antibacterial activity, wild-type M. smegmatis
[16] = test system: Mycobacterium tuberculosis clinical isolates; experiment: microbe, parasite or virus in culture; type: cell-based; details: clinical isolates
[17] = test system: E. coli clinical isolates carrying two or more resistance determinants; experiment: Activity against E. coli clinical isolates with multiple resistance determinants; type: cell-based
[18] = test system: E. cloacae; experiment: Antibacterial activity against reference strains: E. cloacae; type: cell-based; details: strain AG290
[19] = test system: MRSA; experiment: Antibacterial activity against reference strains: MRSA; type: cell-based
[20] = test system: A. baumannii; experiment: Antibacterial activity against reference strains: A. baumannii; type: cell-based; details: strain AG225
[21] = test system: E. cloacae clinical isolates carrying two or more resistance determinants; type: cell-based; details: AAC(6’)
[22] = test system: Cyt14 hybrid ribosome (decoding A site of the human cytoplasmic ribosome); type: biochemical
[23] = test system: wild-type bacterial ribosome; experiment: Cell-free translation assay, wild-type bacterial ribosome; type: biochemical; details: in vitro translation inhibition
[24] = test system: E coli; experiment: Neutropenic mouse thigh infection model; type: in vivo; details: dose 3 mg.kg^−1

SMILES: CCC[C@H]1[C@H](O)[C@@H](N)[C@@H](O[C@H]2[C@H](O[C@@H]3O[C@H](CO)[C@@H](O[C@H]4O[C@@H](CN)[C@@H](O)[C@H](O)[C@H]4N)[C@H]3O)[C@@H](O)[C@H](N)C[C@@H]2N)O[C@@H]1CO [Compound 5, 4’-deoxy-4’-propylparomomycin]
- reduction of bacterial burden in the blood, more than the parent paromomycin at the same dose level ([1]; 4 mg.kg^−1): 1 log
- reduction of bacterial burden in the blood ([1]; 4 mg.kg^−1 dose): approximately 1.5 log units
- Selectivity Mit 13 ([2]; Mit13 over wt bacterial ribosome): 5567
- IC50 Mit13 ([2]; in vitro translation inhibition, Mit13 hybrid ribosome): 167 µg/mL (≈ 260 µM)
- loss of cell viability [3]: only minimal loss of cell viability
- Antibacterial activity (MIC) K. pneumoniae AG215 [4]: 0.5 µg/mL
- MIC M. abscessus, AAC(2’) gene deleted ([5]; AAC(2’) gene deleted): 4 µg/mL and 2 µg/mL
- MIC M. abscessus ([5]; AAC(2’) gene present): 4 µg/mL (≈ 6.23 µM)
- MIC90 E. cloacae [6]: 1 µg/mL (≈ 1.56 µM)
- Activity (MIC) E. coli AG006 ([7]; strain AG006, WT): 0.5 to 1 µg/mL
- Activity (MIC) E. coli AG007 ([7]; strain AG007, AAC(3)): 2 µg/mL
- Activity (MIC) E. coli AG008 ([7]; strain AG008, ANT(2’’)): 0.5 to 1 µg/mL
- Activity (MIC) E. coli AG009 ([7]; strain AG009, AAC(6’)): 1 to 2 µg/mL
- Activity (MIC) E. coli AG036 ([7]; strain AG036, ANT(4′,4′′)): 1 µg/mL
- Activity (MIC) E. coli AG103 ([7]; strain AG103, armA): 2 µg/mL
- Activity (MIC) E. coli AG105 ([7]; strain AG105, AAC(2′)): 1 µg/mL
- Activity (MIC) E. coli AG166 ([7]; strain AG166, APH(3′)): 1 to 2 µg/mL
- Kd [8]: 340 ± 50 nM
- MIC90 K. pneumoniae [9]: 1 µg/mL (≈ 1.56 µM)
- Antibacterial activity (MIC) E. coli AG001 ([10]; strain AG001): 1 to 2 µg/mL
- Antibacterial activity (MIC) E. coli AG003 ([10]; strain AG003 carries the AAC(3) gene): 1 to 2 µg/mL
- Selectivity A1555G ([11]; A1555G over wt bacterial ribosome): 1733
- IC50 A1555G ([11]; in vitro translation inhibition, A1555G mutant mitochondrial hybrid ribosome): 52 µg/mL (≈ 81 µM)
- Antibacterial activity (MIC) P. aeruginosa AG031 ([12]; strain AG031 carries the APH(3’) gene): 8 µg/mL
- Antibacterial activity (MIC) P. aeruginosa AG220 ([12]; strain AG220 carries the APH(3’) gene): 2 to 4 µg/mL
- Activity (MIC) K. pneumoniae isolate 201440494 [13]: 0.5 µg/mL
- Activity (MIC) K. pneumoniae isolate 2014310114 [13]: 0.25 µg/mL
- Activity (MIC) K. pneumoniae isolate 2014310108 ([13]; RmtB): 1 µg/mL
- MIC90 E. coli [14]: 2 µg/mL (≈ 3.12 µM)
- Antibacterial activity (MIC) Wild-type M. smegmatis [15]: 0.16 µg/mL
- MIC M. tuberculosis clinical isolates [16]: 1 µg/mL (≈ 1.56 µM)
- Activity (MIC) E. coli isolate 201430298 ([17]; AAC(3), AAC(6’)): 1 µg/mL
- Activity (MIC) E. coli isolate 2014251408 ([17]; AAC(3), AAC(6’)): 2 µg/mL
- Activity (MIC) E. coli isolate 2014405344 ([17]; AAC(3), APH(3’), RmtB): 4 µg/mL
- Activity (MIC) E. coli isolate 201441114 ([17]; AAC(6’), ANT(2’’)): 1 µg/mL
- Antibacterial activity (MIC) E. cloacae AG290 [18]: 0.5 to 1 µg/mL
- Antibacterial activity (MIC) MRSA AG038 ([19]; strain AG038): 1 to 2 µg/mL
- Antibacterial activity (MIC) MRSA AG042 ([19]; strain AG042 carries the AAC(6)’, ANT(4’,4’’) and APH(3’) genes): 2 µg/mL
- Antibacterial activity (MIC) A. baumannii AG225 [20]: 2 µg/mL
- Activity (MIC) E. cloacae isolate 201435487 ([21]; AAC(3)): 0.5 µg/mL
- Activity (MIC) E. cloacae isolate 201333207 ([21]; AAC(3), APH(3’)): 0.5 µg/mL
- Activity (MIC) E. cloacae isolate 201385168 ([21]; AAC(3), RmtC): 1 µg/mL
- Activity (MIC) E. cloacae isolate 201430601 ([21]; ANT(2’’)): 0.5 µg/mL
- Selectivity Cyt14 ([22]; Cyt14 over wt bacterial ribosome): 2133
- IC50 Cyt 14 ([22]; in vitro translation inhibition, Cyt14 hybrid ribosome): 64 µg/mL (≈ 99.7 µM)
- IC50 wt [23]: 0.03 µg/mL (≈ 0.0467 µM)
- log reduction in colony-forming units (CFUs) compared to vehicle [24]: 1.5 log
